Assay results taken from patent publication US20230126204A1, “[1,3]DIAZINO[5,4-d]PYRIMIDINES AS HER2 INHIBITORS” (Boehringer Ingelheim International GmbH, priority 2020, published 2023).
Like-named read-outs stand apart in the source and are kept apart here.

How the values were obtained:
Format in all cases: cell-based
HER2 YVMA = target: T1, HER2 YVMA (Homo sapiens, UniProt P04626, INS775YVMA); experiment: pHER2 (ERBB2) YVMA assay (AlphaScreen Surefire, HEK cells); conditions: HEK cells expressing HER2 YVMA, phosphorylation at Tyr1221/1222, 4 h
T1 construct: expressed in transfected cells; host or cells: human HEK cells, retroviral transduction, puromycin selection, doxycycline-inducible expression
Experimental: (§1) For the assay, HEK HER2 YVMA cells were seeded in MEM medium with 10% FBS. 4 hours prior to compound addition, HER2 YVMA expression was induced using 1 μg/ml Doxycycline. […] Subsequently, 60.000 cells/well in 60 μL were added. Cells were incubated with compounds for 4 h at 37° C. […] The mixture was incubated at a temperature of 20-25° C. with shaking (700 rpm) for 20 min. After centrifugation, 4 μL of the lysate were transferred to Proxiplates. […] Plates were shaken for 1 min (1400 rpm) and incubated for 2 h at a temperature of 20-25° C. in the dark.
The results of the assay are provided as IC50 values.

EGFR wild type (WT) = target: T2, EGFR wild type (WT) (Homo sapiens, UniProt P00533); experiment: pEGFR assay (AlphaScreen Surefire, HEK cells); conditions: HEK cells expressing EGFR WT, phosphorylation at Tyr1068, 4 h
T2 construct: expressed in transfected cells; host or cells: human HEK cells (ATCC CRL-1573), retroviral transduction, puromycin selection
Experimental: This assay quantifies the phosphorylation of EGFR at Tyr1068 and was used to measure the inhibitory effect of compounds on the transgenic EGFR wild type (WT) protein expressed in HEK cells.
as §1, with “Transduced cells were selected using puromycin. p-EGFR Tyr1068 was determined using the AlphaScreen Surefire pEGF Receptor (Tyr1068) Assay (PerkinElmer, TGRERS). For” for “For”, “EGFR WT” for “HER2 YVMA”, “FBS.” for “FBS. 4 hours prior to compound addition, HER2 YVMA expression was induced using 1 μg/ml Doxycycline.”
This cellular phospho-EGFR (pEGFR) compound dose-response assay quantifies the phosphorylation of EGFR at Tyr1068 in HEK cells expressing EGFR WT. The results of the assay are provided as IC50 values.

[1] = test system: NCI-H2170 (HER2 wild type) cells; experiment: Tumor cell proliferation assay NCI-H2170 (HER2 wild type); conditions: Homo sapiens, 72 h, CellTiter-Glo, read-out: GI50 NCI H-2170 HER2 wt amp.
Experimental: (§2) For proliferation assays, NCI-H2170 (HER2 wild type), NCI-H2170 HER2 YVMA and EGFR WT dependent A431 cells were used. NCI-H2170 HER2 YVMA or NCI-H2170 cells were seeded into 96-well plates at 750 cells/60 μL in growth media (RPMI ATCC+10% FBS, +Penicillin/Streptomycin). […] Compounds were added by using a HP D3000 Digital Dispenser one day after plating the cells. All treatments were performed in technical triplicates. Treated cells were incubated for 72 h at 37° C. with 5% CO2. CellTiter-Glo® Luminescent Cell Viability Assay (Promega) was performed and chemoluminescence was measured by using the multilabel Plate Reader VICTOR X4. The raw data were imported into and analyzed with the Boehringer Ingelheim proprietary software MegaLab (curve fitting based on the program PRISM, GraphPad Inc.).

[2] = test system: NCI-H2170 HER2 YVMA cells; experiment: Tumor cell proliferation assay NCI-H2170 HER2 YVMA; conditions: Homo sapiens, 72 h, CellTiter-Glo, read-out: GI50 NCI H-2170 HER2 YVMA
Source text: HER2 YVMA tumor cell line model generation and proliferation assays
Homology-directed genome engineering was employed to insert a 12 nucleotide sequence encoding YVMA into Exon 20 of the genomic HER2 locus in NCI-H2170 cells. […] The DNA template containing the HER2 exon 20 YVMA insertion variant was obtained from GenScript. PCR followed by Sanger sequencing was used to confirm the presence of the 12-nucleotide insertion in HER2 Exon 20 resulting in the YVMA amino acid duplication.
as §2

[3] = test system: EGFR WT dependent A431 cells; experiment: Tumor cell proliferation assay A431 (EGFR WT dependent); conditions: Homo sapiens, A-431, 72 h, CellTiter-Glo, read-out: GI50 A431 EGFR wt amp.
Experimental: as §2

Ba/F3 cells HER2 WT = experiment: Ba/F3 proliferation assay HER2 WT; conditions: Mus musculus, BaF3, 72 h, CellTiter-Glo
Experimental: (§3) Ba/F3 cell model generation and proliferation assays
(§4) Plasmids containing HER2 mutants and EGFR WT were obtained from GeneScript. To generate EGFR/HER2-dependent Ba/F3 models, Ba/F3 cells were transduced with retroviruses containing vectors that harbor EGFR WT, HER2 WT or HER2 mutants (YVMA). Platinum-E cells (Cell Biolabs) were used for retrovirus packaging. Retrovirus was added to Ba/F3 cells. To ensure infection, 4 μg/mL polybrene was added and cells were spinfected. Infection efficiency was confirmed by measuring GFP-positive cells using a cell analyzer. Cells with an infection efficiency of 10% to 20% were further cultivated and puromycin selection with 1 μg/mL was initiated. As a control, parental Ba/F3 cells were used to assess the selection status. Selection was considered successful when parental Ba/F3 cells cultures died. To evaluate the transforming potential of HER2 mutations, the growth medium was no longer supplemented with IL-3. Ba/F3 cells harboring the empty vector were used as a control. A switch from IL-3 to EGF was performed for Ba/F3 cells with the EGFR WT known for its dependency on EGF ligand. Approximately ten days before conducting the experiments, puromycin was left out. For proliferation assays (data in table 12 and 14), Ba/F3 cells were seeded into 96-well plates at 5×10^3 cells/100 μL in growth media. Compounds were added by using a HP D3000 Digital Dispenser. All treatments were performed in technical triplicates. Treated cells were incubated for 72 h at 37° C. with 5% CO2. CellTiter-Glo® Luminescent Cell Viability Assay (Promega) was performed and chemoluminescence was measured by using the multilabel Plate Reader VICTOR X4. The raw data were imported into and analyzed with the Boehringer Ingelheim proprietary software MegaLab (curve fitting based on the program PRISM, GraphPad Inc.).

[4] = test system: Ba/F3 cells HER2 mutants (YVMA); experiment: Ba/F3 proliferation assay HER2 YVMA; conditions: Mus musculus, BaF3, 72 h, CellTiter-Glo
Experimental: as §3, §4

Ba/F3 cells EGFR WT = experiment: Ba/F3 proliferation assay EGFR WT (EGF dependent); conditions: Mus musculus, CellTiter-Glo, read-out: GI50 BAF3 EGF dep.
Experimental: as §3, §4

[5] = BaF3, EGF instead of IL-3, 72 h
[6] = BaF3, prior art compounds, EGF instead of IL-3, 72 h

T1 sequence (P04626 with tags, fused parts or gaps INS775YVMA): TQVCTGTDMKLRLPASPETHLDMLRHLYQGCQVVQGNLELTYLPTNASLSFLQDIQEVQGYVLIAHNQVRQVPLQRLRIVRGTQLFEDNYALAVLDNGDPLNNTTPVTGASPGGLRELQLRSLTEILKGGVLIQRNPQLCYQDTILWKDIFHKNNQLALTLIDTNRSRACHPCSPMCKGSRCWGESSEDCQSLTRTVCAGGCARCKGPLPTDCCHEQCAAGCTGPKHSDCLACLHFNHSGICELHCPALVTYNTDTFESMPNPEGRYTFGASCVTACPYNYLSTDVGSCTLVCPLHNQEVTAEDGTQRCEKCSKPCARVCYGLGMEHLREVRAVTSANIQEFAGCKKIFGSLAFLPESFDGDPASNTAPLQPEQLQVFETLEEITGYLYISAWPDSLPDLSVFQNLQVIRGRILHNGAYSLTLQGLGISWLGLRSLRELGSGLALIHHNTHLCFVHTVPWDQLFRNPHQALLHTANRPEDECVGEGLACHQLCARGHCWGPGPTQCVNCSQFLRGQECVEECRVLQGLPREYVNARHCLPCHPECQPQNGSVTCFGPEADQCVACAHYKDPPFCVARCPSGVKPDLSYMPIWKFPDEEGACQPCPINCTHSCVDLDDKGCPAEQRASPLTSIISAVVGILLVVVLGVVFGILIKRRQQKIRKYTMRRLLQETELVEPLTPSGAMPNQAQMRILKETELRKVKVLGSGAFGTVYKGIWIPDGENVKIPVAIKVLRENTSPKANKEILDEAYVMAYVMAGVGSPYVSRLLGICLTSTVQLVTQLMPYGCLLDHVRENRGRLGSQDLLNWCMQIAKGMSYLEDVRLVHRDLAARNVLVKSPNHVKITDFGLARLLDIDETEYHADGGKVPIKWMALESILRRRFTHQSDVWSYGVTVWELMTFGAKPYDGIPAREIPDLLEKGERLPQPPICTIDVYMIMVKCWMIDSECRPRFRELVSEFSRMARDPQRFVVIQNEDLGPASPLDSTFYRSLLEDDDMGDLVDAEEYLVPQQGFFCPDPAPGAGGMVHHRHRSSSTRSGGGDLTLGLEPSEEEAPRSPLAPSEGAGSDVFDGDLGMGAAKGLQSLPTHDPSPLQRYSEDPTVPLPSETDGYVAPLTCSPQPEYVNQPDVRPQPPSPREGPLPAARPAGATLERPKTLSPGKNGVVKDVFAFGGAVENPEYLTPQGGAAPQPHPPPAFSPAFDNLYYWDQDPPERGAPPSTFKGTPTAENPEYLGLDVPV
T2 sequence (P00533 25-1210): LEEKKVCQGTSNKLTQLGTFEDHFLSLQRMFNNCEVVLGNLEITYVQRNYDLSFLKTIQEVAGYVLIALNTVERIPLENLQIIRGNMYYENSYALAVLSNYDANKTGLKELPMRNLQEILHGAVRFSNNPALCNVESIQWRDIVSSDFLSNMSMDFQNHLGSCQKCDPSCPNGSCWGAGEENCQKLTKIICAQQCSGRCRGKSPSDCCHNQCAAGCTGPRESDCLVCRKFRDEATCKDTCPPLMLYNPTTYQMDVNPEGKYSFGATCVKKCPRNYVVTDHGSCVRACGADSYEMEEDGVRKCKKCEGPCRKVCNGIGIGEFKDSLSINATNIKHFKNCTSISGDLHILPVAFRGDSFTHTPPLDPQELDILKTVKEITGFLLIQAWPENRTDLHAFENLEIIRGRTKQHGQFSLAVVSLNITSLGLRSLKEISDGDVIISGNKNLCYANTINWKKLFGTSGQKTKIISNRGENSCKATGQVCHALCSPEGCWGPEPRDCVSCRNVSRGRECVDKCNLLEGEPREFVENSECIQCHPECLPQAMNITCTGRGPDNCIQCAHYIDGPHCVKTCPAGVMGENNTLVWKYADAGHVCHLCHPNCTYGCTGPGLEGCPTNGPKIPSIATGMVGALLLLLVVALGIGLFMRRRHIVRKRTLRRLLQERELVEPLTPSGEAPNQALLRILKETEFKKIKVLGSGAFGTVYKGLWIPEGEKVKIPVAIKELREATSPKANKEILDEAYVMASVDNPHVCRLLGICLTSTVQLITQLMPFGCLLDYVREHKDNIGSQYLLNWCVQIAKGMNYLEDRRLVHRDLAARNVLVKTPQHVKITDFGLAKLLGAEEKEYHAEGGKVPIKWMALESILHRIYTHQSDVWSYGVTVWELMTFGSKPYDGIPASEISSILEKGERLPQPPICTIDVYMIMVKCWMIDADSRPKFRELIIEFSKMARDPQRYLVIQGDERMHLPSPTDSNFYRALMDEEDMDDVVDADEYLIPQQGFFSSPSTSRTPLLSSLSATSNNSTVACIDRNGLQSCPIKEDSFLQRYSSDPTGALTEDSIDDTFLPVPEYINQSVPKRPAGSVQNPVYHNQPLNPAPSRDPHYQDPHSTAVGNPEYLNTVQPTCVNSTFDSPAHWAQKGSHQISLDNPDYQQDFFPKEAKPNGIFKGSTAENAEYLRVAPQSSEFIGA

Row | Structure (SMILES) | IC50 (HER2 YVMA) [nM] | IC50 (EGFR wild type (WT)) [nM] | GI50 [3] [nM] | GI50 (Ba/F3 cells HER2 WT) [nM] | GI50 [4] [nM] | GI50 (Ba/F3 cells EGFR WT; [5]) [nM] | GI50 (Ba/F3 cells HER2 WT; prior art compounds) [nM] | GI50 ([3]; prior art compounds) [nM] | GI50 ([4]; prior art compounds) [nM] | GI50 (Ba/F3 cells EGFR WT; [6]) [nM] | GI50 [1] [nM] | GI50 [2] [nM] | GI50 ([1]; prior art compounds) [nM] | GI50 ([2]; prior art compounds) [nM]
1 | C=CC(=O)N1CCN(c2ncc3ncnc(Nc4cc(Cl)c(Oc5ccc6c(c5)ncn6C)c(Cl)c4)c3n2)CC1 [Compound I-7] | 30 | 996 | > 5000 | 6 | 37 | 1110 |  |  |  |  | 25 | 118 |  | 
2 | C=CC(=O)N1CCN(c2ncc3ncnc(Nc4cc(Br)c(Oc5ccc6c(c5)ncn6C)c(Br)c4)c3n2)CC1 [Compound I-9] | 34 | 485 | 2510 | 5 | 23 | 1120 |  |  |  |  | 46 | 203 |  | 
3 | Cc1cc(Nc2ncnc3ccc(NC4=NC(C)(C)CO4)cc23)ccc1Oc1ccn2ncnc2c1 [tucatinib, reference compound] |  |  |  |  |  |  | 10 |  |  |  |  |  | 58 | 
4 | C#Cc1cc(Nc2ncnc3cnc(N4CCN(C(=O)C=C)CC4)nc23)ccc1Oc1ccc2c(c1)ncn2C [Compound I-2] | 10 | 380 | 4660 | 1 | 9 | 1380 |  |  |  |  | 9 | 50 |  | 
5 | C=CC(=O)Nc1cccc(-n2c(=O)c(Oc3ccc(F)cc3F)cc3cnc(Nc4cnn(C)c4)nc32)c1 [WO 2019/046775 Comp.2, reference compound] |  |  |  |  |  |  | 3 | 16 | 14 | 13 |  |  | 22 | 34
6 | C=CC(=O)N1CCN(c2ncc3ncnc(Nc4ccc(Oc5ccc6c(c5)ncn6C)c(Cl)c4)c3n2)CC1 [Compound I-4] | 10 | 221 | > 5000 | 2 | 17 | 904 |  |  |  |  | 11 | 81 |  | 
7 | CCOc1cc2ncc(C#N)c(Nc3ccc(OCc4ccccn4)c(Cl)c3)c2cc1NC(=O)/C=C/CN(C)C [neratinib, reference compound] |  |  |  |  |  |  |  | 55 | 5 | 14 |  |  | 3 | 37
8 | C=CC(=O)Nc1ccc2ncnc(Nc3ccc(OCc4cccc(F)c4)c(Cl)c3)c2c1 [allitinib, reference compound] |  |  |  |  |  |  |  |  | 17 | 31 |  |  | 36 | 

The next lines start with results.

Row | IC50 (HER2 YVMA) [nM] | IC50 (EGFR wild type (WT)) [nM] | GI50 [3] [nM] | GI50 (Ba/F3 cells HER2 WT) [nM] | GI50 [4] [nM] | GI50 (Ba/F3 cells EGFR WT; [5]) [nM] | GI50 (Ba/F3 cells HER2 WT; prior art compounds) [nM] | GI50 ([3]; prior art compounds) [nM] | GI50 ([4]; prior art compounds) [nM] | GI50 (Ba/F3 cells EGFR WT; [6]) [nM] | Structure (SMILES) | GI50 [1] [nM] | GI50 [2] [nM] | GI50 ([1]; prior art compounds) [nM] | GI50 ([2]; prior art compounds) [nM]
9 | 22 | 355 | 3930 | 3 | 31 | 1040 |  |  |  |  | C=CC(=O)N1CCN(c2ncc3ncnc(Nc4cc(F)c(Oc5ccc6c(c5)ncn6C)c(Cl)c4)c3n2)CC1 [Compound I-8] | 21 | 172 |  | 
10 | 10 | 265 | > 5000 | 1 | 18 | 2400 |  |  |  |  | C=CC(=O)N1CCN(c2ncc3ncnc(Nc4ccc(Oc5ccc6c(c5)ncn6C)c(C)c4)c3n2)CC1 [Compound I-1] | 16 | 82 |  | 
11 |  |  |  |  |  |  |  | > 5000 | 60 |  | C=CC(=O)Nc1ccc2ncnc(Nc3ccc(Oc4ccc5c(c4)ncn5C)c(C)c3)c2c1 [WO 2007/059257 Ex.185, reference compound] |  |  |  | 
12 | 17 | 1170 | > 5000 | 1 | 12 | 2800 |  |  |  |  | C=CC(=O)N1CCN(c2ncc3ncnc(Nc4ccc(Oc5ccc6c(c5)ncn6C)c(OC)c4)c3n2)CC1 [Compound I-3] | 18 | 74 |  | 
13 | 27 | 873 | 4810 | 7 | 48 | 1180 |  |  |  |  | C=CC(=O)N1CCN(c2ncc3ncnc(Nc4ccc(Oc5ccc6c(c5)ncn6C)cc4F)c3n2)CC1 [Compound I-12] | 45 | 167 |  | 
14 | 25 | 1170 | > 5000 | 3 | 40 | 644 |  |  |  |  | C=CC(=O)N1CCN(c2ncc3ncnc(Nc4cc(F)c(Oc5ccc6c(c5)ncn6C)c(F)c4)c3n2)CC1 [Compound I-11] | 47 | 339 |  | 
15 |  |  |  |  |  |  | 1 | 1 | 2 | 1 | C=CC(=O)N1CCC(Oc2cc3c(Nc4ccc(Cl)c(Cl)c4F)ncnc3cc2OC)CC1 [poziotinib, reference compound] |  |  | 1 | 5
16 | 80 | 1770 | > 5000 | 8 | 64 | 1630 |  |  |  |  | C=CC(=O)N1CCN(c2ncc3ncnc(Nc4cc(Br)c(Oc5ccc6c(c5)ncn6C)cc4Cl)c3n2)CC1 [Compound I-10] | 52 | 216 |  | 
17 | 19 | 1110 | 2640 | 3 | 27 | 1840 |  |  |  |  | C=CC(=O)N1CCN(c2ncc3ncnc(Nc4ccc(Oc5ccc6c(c5)ncn6C)c(F)c4)c3n2)CC1 [Compound I-6] | 26 | 146 |  | 
18 |  |  |  |  |  |  |  |  | 44 | 70 | C=CC(=O)N1CCC[C@@H](n2nc(-c3ccc(Oc4ccccc4)cc3)c3c(N)ncnc32)C1 [ibrutinib, reference compound] |  |  | 16 | 
